The record followed here is paper PMC6660600, “Odorant Inhibition in Mosquito Olfaction” (iScience, 2019).

What all share (test): voltage clamp of Xenopus oocytes
Holding throughout (format): cell-based

Experiment [1] addresses T1, CquiOR32-CquiOrco (Culex quinquefasciatus, UniProt A0A3S7SHH6).
T1 construct: gene OR32; full-length OR coexpressed with Orco in Xenopus oocytes; heteromeric ligand-gated cation channel; with Odorant receptor coreceptor Orco
T1 sequence (A0A3S7SHH6 1-397): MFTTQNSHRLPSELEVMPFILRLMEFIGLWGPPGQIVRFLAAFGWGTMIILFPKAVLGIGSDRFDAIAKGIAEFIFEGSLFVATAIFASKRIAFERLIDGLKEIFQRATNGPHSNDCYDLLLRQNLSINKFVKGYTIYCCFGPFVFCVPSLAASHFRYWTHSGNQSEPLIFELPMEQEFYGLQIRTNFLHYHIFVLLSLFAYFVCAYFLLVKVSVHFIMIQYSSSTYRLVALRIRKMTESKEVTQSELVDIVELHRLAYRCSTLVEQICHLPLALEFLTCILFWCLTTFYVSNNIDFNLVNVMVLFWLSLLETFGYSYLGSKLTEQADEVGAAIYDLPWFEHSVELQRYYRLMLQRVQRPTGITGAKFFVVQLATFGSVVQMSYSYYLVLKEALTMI
T1 sequence (Q309I4 1-480 partner): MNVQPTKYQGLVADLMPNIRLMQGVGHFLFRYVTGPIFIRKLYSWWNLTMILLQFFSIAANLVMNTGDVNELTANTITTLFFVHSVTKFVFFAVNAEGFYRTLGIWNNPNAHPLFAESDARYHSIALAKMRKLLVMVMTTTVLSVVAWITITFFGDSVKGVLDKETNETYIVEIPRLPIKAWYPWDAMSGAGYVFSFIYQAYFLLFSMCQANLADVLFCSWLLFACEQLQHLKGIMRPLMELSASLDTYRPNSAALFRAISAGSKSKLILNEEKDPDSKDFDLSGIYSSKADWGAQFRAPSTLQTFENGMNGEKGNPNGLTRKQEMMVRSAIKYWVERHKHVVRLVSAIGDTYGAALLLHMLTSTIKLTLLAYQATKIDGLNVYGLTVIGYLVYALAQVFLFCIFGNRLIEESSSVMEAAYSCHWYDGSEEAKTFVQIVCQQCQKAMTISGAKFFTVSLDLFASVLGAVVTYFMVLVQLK
To be noted: agonist (inward current), absolute value, coexpressed with CquiOrco.

For experiment [2], the target named is T1, CquiOR32-CquiOrco. Conditions: agonist (inward current), dose-dependent, coexpressed with CquiOrco.
The target in experiment [3] is T1, CquiOR32-CquiOrco. To be noted: inhibitor (reverse current), coexpressed with CquiOrco.
The target of another experiment is T2, CquiOrco (Culex quinquefasciatus, UniProt Q309I4).
T2 construct: full-length Orco expressed alone in Xenopus oocytes
T2 sequence (Q309I4 1-480): T1 sequence (Q309I4 1-480 partner)
To be noted: Orco agonist; Orco expressed alone.

The target in experiment [4] is T1, CquiOR32-CquiOrco. Conditions: inhibitor (reverse current), absolute value, coexpressed with CquiOrco.

Turning to `CCC(C)=O` [2-butanone], the “inward current at 1 mM” value at CquiOR32-CquiOrco [1] came out at 45 ± 7 nA.

As to `OCCc1ccccc1` [2-phenylethanol], at CquiOR32-CquiOrco [1], the “inward current at 1 mM” value is reported as 44 ± 9 nA.

Take `CC1=NCCS1` [2MT, 2-methyl-2-thiazoline]: the inward current entry at CquiOR32-CquiOrco [2] (1 mM (Figure 1A)) is “various odorants, including cyclohexanone, methyl salicylate, and 2-methyl-2-thiazoline”.

For `O=C1CCCCC1` [CYC, cyclohexanone], at CquiOR32-CquiOrco [2] (1 mM (Figure 1A)), the inward current result is “various odorants, including cyclohexanone, methyl salicylate, and 2-methyl-2-thiazoline”.

Consider `CCN(CC)C(=O)c1cccc(C)c1` [DEET], for which the reverse current result on CquiOR32-CquiOrco [3] (1 mM (Figure 1A)) was “eucalyptol, fenchone, DEET, picaridin, IR3535, PMD, and other compounds generated currents in reverse direction”.

With `CC12CCC(CC1)C(C)(C)O2` [EUC, eucalyptol], the reverse current entry at CquiOR32-CquiOrco [3] (dose-dependent, also reduces methyl salicylate response, proposed negative allosteric modulator) is recorded as “eucalyptol generated currents in the reverse direction”.

In the case of `CC12CCC(C1)C(C)(C)C2=O` (stereo not drawn) [FEN, fenchone], on CquiOR32-CquiOrco [3] (1 mM (Figure 1A)), the reverse current entry was “eucalyptol, fenchone, DEET, picaridin, IR3535, PMD, and other compounds generated currents in reverse direction”.

For the compound `COC(=O)c1ccccc1O` [MS, methyl salicylate], on CquiOR32-CquiOrco [2], the inward current result was “Methyl salicylate elicited inward currents, and eucalyptol generated currents in the reverse direction”.

For the compound `CCc1ccc(NC(=O)CSc2nnc(-c3cccnc3)n2CC)cc1` [VUAA-1], the current entry at CquiOrco is recorded as “Response of a CquiOrco-expressing oocyte to Orco agonist, VUAA-1, is displayed in an inset”.

Take `CC(=O)c1ccccc1` [acetophenone]: at CquiOR32-CquiOrco [1], the “inward current at 1 mM” value was 58 ± 12 nA.

In the case of `COc1ccccc1O` [guaiacol], the “inward current at 1 mM” value at CquiOR32-CquiOrco [1] is recorded as 101 ± 11 nA.

As to `CCC(C)OC(=O)N1CCCCC1CCO` (stereo not drawn) [picaridin], the reverse current entry on CquiOR32-CquiOrco [3] (1 mM (Figure 1A)) was “eucalyptol, fenchone, DEET, picaridin, IR3535, PMD, and other compounds generated currents in reverse direction”.

As to `CC1=CCC(=C(C)C)CC1` [terpinolene], at CquiOR32-CquiOrco [4], the “reverse current at 1 mM” value turned out to be 38 ± 8 nA.

With `CC1=CC=C(C(C)C)CC1` [α-terpinene], on CquiOR32-CquiOrco [4], the “reverse current at 1 mM” value is on record as 43 ± 5 nA.

Consider `CCC1CCC(=O)O1` (stereo not drawn) [γ-hexalactone], for which the “inward current at 1 mM” value on CquiOR32-CquiOrco [1] was determined as 115 ± 14 nA.
